Key:
[1] = tested on: HO-1 human melanoma cells; conditions: HO-1 cells, cited from earlier work
[2] = tested on: HO-1 human melanoma cells; assay: SCLA reverse Northern hybridization of arrayed subtracted cDNA library with mRNAs from treated HO-1 cells; assay type: cell-based; conditions: IFN-β 2000 units/ml, MEZ 10 ng/ml, staurosporine 500 ng/ml, temporally pooled mRNAs
Experimental: Staurosporine-treated HO-1 cells were harvested at 4, 8 and 24 hrs after treatment.
For reverse Northern analysis, RNA samples from each time point were pooled and 20 μg of pooled total RNA was reverse transcribed in two reactions into a ^32P-labeled first strand cDNA probe. After heating at 70° C. for 10 min and quenching on ice for two min, a mixture consisting of 10 pmole of T13V and 10 μg of the total RNA mixture in 50 mM Tris-HCl (pH 8.3), 75 mM KCl, 3 mM MgCl2, 10 mM DTT, 0.5 mM DATP, 0.5 mM dGTP, 0.5 mM dTTP, 0.02 mM dCTP, 5 U RNase inhibitor (Gibco BRL), 100 μCi dCTP (3000 Ci/mmole from Amersham) and 200 U Superscript RT II (Gibco BRL) was added (final 25 μl). The reaction mixture was incubated at 42° C. for one hr and at 37° C. for 30 min after addition of 2 μl of RNase H (10U, Gibco BRL). The membrane was hybridized at 42° C. overnight in a 50% formamide hybridization solution. The hybridized membrane was washed 2× at room temperature for 15 min with 2× SSC containing 0.1% SDS and then washed for at least one hr at 55° C. with 0.1× SSC containing 0.1% SDS. The membranes were exposed for different times to autoradiography.
After subtraction hybridization, a temporally spaced amplified subtracted (TSS) cDNA library (consisting of 4,979 plaques) was picked and plated individually (arrayed) in thirteen 384-well microtiter plates. […] This approach permitted the identification of cDNAs displaying altered expression as a function of the specific treatment protocol.

[3] = IFN-β 2000 units/ml, MEZ 10 ng/ml where printed

| SMILES | effect on HO-1 cell growth [1, 3] | melanin synthesis / differentiation marker [1, 3] | morphological differentiation ([1]; MEZ 10 ng/ml) | clones induced only by the agent (uniquely positive after a single treatment protocol) [2] [clones] | apoptosis [1] | positive clones (DMAC) identified after treatment, of 427 positive clones [2] [clones] |
| --- | --- | --- | --- | --- | --- | --- |
| C=C(C)[C@@]12O[C@@]3(c4ccccc4)O[C@@H]1[C@@H]1[C@@H]4O[C@]4(CO)[C@@H](O)[C@]4(O)C(=O)C(C)=C[C@H]4[C@@]1(O3)[C@H](C)[C@H]2OC(=O)/C=C/C=C/c1ccccc1 [MEZ, mezerein] | growth suppression | elevated melanin levels | exhibit morphological differentiation | 12 |  |  |
| CN[C@@H]1C[C@H]2O[C@@](C)([C@@H]1OC)n1c3ccccc3c3c4c(c5c6ccccc6n2c5c31)C(=O)NC4 [staurosporine] |  |  |  | 25 | induces apoptosis | 107 |

— US20020055099A1, “SEQUENTIAL CDNA LIBRARY AND USES THEREOF” (priority 1999, published 2002)
